Reference: ChEMBL document CHEMBL1154277, “Discovery of N-substituted pyridinones as potent and selective inhibitors of p38 kinase” (Bioorg Med Chem Lett, 2009)

What was measured:
[1] = molecular target: Serine/threonine-protein kinase Nek7 (Homo sapiens) (UniProt Q8TDX7); experiment: Inhibition of NEK7 at 10 uM
[2] = system: PBMC; experiment: Antiinflammatory activity against human PBMC assessed as inhibition of LPS-induced TNFalpha release; type: functional, cell-based
[3] = molecular target: Inhibitor of nuclear factor kappa-B kinase subunit alpha (Homo sapiens) (UniProt O15111); experiment: Inhibition of IKKalpha at 10 uM
[4] = molecular target: Mitogen-activated protein kinase kinase kinase kinase 2 (Homo sapiens) (UniProt Q12851); experiment: Inhibition of GCK at 10 uM
[5] = molecular target: Insulin receptor (Homo sapiens) (UniProt P06213); experiment: Inhibition of INSR at 10 uM
[6] = molecular target: Ephrin type-A receptor 8 (Homo sapiens) (UniProt P29322); experiment: Inhibition of EPHA8 at 10 uM
[7] = molecular target: Tyrosine-protein kinase receptor TYRO3 (Homo sapiens) (UniProt Q06418); experiment: Inhibition of RSE at 10 uM
[8] = molecular target: Serine/threonine-protein kinase 25 (Homo sapiens) (UniProt O00506); experiment: Inhibition of YSK1 at 10 uM
[9] = molecular target: Ephrin type-A receptor 1 (Homo sapiens) (UniProt P21709); experiment: Inhibition of EPHA1 at 10 uM
[10] = molecular target: Phosphorylase b kinase gamma catalytic chain, skeletal muscle/heart isoform (Homo sapiens) (UniProt Q16816); experiment: Inhibition of PHKgamma1 at 10 uM
[11] = system: Leucine-rich repeat serine/threonine-protein kinase 2 (Homo sapiens), Q5S007 [G2019S]; experiment: Inhibition of LRRK2 G2019S mutant at 10 uM
[12] = molecular target: Tyrosine-protein kinase JAK3 (Homo sapiens) (UniProt P52333); experiment: Inhibition of JAK3 at 10 uM
[13] = molecular target: Serine/threonine-protein kinase PAK 4 (Homo sapiens) (UniProt O96013); experiment: Inhibition of PAK4 at 10 uM
[14] = molecular target: Serine/threonine-protein kinase MARK2 (Homo sapiens) (UniProt Q7KZI7); experiment: Inhibition of MARK2 at 10 uM
[15] = molecular target: Tyrosine-protein kinase Srms (Homo sapiens) (UniProt Q9H3Y6); experiment: Inhibition of SRMS at 10 uM
[16] = molecular target: 3-phosphoinositide-dependent protein kinase 1 (Homo sapiens) (UniProt O15530); experiment: Inhibition of PDK1 at 10 uM
[17] = molecular target: Tyrosine-protein kinase JAK2 (Homo sapiens) (UniProt O60674); experiment: Inhibition of JAK2 at 10 uM
[18] = molecular target: Serine/threonine-protein kinase Sgk1 (Homo sapiens) (UniProt O00141); experiment: Inhibition of SGK1 at 10 uM
[19] = molecular target: High affinity nerve growth factor receptor (Homo sapiens) (UniProt P04629); experiment: Inhibition of TRKA at 10 uM
[20] = molecular target: Serine/threonine-protein kinase MRCK beta (Homo sapiens) (UniProt Q9Y5S2); experiment: Inhibition of MRCKbeta at 10 uM
[21] = molecular target: Tyrosine-protein kinase Fes/Fps (Homo sapiens) (UniProt P07332); experiment: Inhibition of FES at 10 uM
[22] = molecular target: cGMP-dependent protein kinase 1 (Homo sapiens) (UniProt Q13976); experiment: Inhibition of PRKG1 at 10 uM
[23] = molecular target: Serine/threonine-protein kinase DCLK2 (Homo sapiens) (UniProt Q8N568); experiment: Inhibition of DCK2 at 10 uM
[24] = molecular target: Platelet-derived growth factor receptor alpha (Homo sapiens) (UniProt P16234); experiment: Inhibition of PDGFRalpha at 10 uM
Chain of Platelet-derived growth factor receptor alpha (Homo sapiens) (P16234 whole entry): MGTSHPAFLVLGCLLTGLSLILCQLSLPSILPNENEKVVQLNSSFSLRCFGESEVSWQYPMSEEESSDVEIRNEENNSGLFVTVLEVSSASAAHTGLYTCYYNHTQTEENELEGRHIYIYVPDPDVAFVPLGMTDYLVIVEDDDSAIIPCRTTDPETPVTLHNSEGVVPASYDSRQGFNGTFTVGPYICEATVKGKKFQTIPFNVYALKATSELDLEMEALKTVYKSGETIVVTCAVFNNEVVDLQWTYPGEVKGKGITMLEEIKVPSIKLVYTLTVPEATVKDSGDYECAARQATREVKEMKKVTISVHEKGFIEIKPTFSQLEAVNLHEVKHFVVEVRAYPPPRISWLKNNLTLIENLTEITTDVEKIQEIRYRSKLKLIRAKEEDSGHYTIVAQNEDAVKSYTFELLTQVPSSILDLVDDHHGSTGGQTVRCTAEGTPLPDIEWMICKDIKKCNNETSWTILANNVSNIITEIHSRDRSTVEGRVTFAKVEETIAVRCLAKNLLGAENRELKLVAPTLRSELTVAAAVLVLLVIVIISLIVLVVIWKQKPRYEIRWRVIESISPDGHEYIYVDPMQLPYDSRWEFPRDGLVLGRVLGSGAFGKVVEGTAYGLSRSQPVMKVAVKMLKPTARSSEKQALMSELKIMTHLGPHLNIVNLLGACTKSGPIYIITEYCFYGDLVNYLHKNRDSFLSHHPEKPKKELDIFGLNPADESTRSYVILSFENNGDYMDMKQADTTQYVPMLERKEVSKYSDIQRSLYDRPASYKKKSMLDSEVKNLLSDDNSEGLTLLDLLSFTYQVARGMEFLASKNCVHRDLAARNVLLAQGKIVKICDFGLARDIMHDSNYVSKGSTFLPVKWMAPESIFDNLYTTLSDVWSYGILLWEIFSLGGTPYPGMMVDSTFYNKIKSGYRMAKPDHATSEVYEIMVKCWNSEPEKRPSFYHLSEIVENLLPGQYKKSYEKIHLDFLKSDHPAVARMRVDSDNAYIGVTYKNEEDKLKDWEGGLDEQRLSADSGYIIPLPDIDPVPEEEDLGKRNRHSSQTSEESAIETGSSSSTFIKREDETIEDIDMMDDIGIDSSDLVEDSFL

Chain of Tyrosine-protein kinase receptor TYRO3 (Homo sapiens) (Q06418 whole entry): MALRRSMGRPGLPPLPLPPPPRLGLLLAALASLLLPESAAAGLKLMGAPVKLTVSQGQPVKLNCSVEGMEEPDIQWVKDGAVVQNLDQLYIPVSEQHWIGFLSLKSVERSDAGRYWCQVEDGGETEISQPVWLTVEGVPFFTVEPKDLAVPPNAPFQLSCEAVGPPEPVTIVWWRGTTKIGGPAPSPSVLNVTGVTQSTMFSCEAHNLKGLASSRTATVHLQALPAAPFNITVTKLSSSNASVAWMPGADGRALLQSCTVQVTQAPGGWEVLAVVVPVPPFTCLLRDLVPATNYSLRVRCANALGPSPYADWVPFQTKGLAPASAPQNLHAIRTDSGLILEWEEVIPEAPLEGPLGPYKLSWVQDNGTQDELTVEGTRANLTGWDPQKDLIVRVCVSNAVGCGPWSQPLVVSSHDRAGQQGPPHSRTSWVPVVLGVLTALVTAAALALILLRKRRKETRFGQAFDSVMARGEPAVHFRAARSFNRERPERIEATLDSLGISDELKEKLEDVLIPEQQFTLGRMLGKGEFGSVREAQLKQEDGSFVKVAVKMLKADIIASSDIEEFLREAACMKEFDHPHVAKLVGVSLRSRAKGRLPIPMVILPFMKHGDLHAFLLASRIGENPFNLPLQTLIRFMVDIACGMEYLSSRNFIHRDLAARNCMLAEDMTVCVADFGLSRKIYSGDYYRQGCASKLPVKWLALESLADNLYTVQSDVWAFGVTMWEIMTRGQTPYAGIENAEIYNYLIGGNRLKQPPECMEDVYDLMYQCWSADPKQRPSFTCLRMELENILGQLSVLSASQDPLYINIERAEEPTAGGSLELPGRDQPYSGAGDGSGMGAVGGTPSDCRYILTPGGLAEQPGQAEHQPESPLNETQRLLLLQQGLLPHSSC
Chain of Serine/threonine-protein kinase Sgk1 (Homo sapiens) (O00141 whole entry): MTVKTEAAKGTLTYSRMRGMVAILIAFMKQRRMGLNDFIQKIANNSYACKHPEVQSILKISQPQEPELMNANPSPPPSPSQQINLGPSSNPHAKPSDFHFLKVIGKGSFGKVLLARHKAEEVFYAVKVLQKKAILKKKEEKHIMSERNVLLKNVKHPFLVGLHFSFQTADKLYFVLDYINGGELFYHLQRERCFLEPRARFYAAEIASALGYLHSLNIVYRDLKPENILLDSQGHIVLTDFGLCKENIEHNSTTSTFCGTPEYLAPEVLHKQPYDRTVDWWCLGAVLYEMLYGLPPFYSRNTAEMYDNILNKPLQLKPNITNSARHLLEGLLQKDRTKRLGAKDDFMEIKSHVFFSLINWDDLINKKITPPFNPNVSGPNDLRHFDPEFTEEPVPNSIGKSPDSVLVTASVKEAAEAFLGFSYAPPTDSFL
Chain of Tyrosine-protein kinase Srms (Homo sapiens) (Q9H3Y6 whole entry, looked up): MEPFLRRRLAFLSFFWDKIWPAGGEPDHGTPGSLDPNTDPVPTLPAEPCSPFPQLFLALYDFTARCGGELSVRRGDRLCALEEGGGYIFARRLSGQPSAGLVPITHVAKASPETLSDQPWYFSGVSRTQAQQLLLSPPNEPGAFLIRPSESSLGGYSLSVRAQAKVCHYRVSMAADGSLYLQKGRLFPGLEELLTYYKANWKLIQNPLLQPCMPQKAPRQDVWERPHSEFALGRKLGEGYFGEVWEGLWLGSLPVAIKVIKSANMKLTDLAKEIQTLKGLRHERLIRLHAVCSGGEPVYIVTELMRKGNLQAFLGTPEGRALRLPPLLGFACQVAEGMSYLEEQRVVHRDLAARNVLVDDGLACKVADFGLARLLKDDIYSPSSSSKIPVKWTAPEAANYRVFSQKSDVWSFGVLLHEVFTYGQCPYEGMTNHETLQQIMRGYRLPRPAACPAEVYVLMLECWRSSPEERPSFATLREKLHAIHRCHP
Chain of Serine/threonine-protein kinase Nek7 (Homo sapiens) (Q8TDX7 whole entry, looked up): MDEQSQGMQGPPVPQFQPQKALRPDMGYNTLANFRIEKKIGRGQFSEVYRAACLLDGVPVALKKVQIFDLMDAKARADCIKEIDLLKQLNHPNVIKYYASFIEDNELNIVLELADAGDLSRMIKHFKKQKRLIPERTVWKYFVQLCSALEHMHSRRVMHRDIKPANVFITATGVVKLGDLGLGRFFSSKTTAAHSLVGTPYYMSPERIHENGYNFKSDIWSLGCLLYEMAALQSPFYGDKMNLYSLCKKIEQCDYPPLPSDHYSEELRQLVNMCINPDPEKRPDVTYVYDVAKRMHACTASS
Chain of Serine/threonine-protein kinase 25 (Homo sapiens) (O00506 whole entry, looked up): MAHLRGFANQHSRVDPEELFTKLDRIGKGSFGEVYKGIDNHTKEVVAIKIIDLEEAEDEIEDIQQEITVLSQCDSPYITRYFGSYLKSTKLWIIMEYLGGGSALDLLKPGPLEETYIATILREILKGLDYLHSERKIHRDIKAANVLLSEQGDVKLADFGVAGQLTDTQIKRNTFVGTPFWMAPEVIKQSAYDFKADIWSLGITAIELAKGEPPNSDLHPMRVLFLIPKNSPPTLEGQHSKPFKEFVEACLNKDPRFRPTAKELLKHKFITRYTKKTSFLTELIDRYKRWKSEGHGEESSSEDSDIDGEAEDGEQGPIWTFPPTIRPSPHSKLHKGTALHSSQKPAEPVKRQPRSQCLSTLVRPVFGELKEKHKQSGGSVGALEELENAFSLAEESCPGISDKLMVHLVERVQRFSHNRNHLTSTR
Chain of 3-phosphoinositide-dependent protein kinase 1 (Homo sapiens) (O15530 whole entry, looked up): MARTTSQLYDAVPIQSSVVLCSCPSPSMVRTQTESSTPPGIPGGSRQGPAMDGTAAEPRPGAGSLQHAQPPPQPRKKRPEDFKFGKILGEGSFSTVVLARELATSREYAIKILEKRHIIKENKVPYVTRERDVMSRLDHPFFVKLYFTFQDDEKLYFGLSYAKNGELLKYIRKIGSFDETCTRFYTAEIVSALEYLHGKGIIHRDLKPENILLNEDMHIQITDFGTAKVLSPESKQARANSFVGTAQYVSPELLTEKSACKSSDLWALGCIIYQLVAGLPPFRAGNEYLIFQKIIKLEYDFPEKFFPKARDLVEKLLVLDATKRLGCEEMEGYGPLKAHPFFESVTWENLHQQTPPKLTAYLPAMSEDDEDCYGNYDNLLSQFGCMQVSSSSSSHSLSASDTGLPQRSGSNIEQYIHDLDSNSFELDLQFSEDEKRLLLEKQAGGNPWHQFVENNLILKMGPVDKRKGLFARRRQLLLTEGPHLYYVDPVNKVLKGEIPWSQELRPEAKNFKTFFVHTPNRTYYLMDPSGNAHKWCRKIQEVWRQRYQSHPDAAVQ
Chain of Serine/threonine-protein kinase MARK2 (Homo sapiens) (Q7KZI7 whole entry): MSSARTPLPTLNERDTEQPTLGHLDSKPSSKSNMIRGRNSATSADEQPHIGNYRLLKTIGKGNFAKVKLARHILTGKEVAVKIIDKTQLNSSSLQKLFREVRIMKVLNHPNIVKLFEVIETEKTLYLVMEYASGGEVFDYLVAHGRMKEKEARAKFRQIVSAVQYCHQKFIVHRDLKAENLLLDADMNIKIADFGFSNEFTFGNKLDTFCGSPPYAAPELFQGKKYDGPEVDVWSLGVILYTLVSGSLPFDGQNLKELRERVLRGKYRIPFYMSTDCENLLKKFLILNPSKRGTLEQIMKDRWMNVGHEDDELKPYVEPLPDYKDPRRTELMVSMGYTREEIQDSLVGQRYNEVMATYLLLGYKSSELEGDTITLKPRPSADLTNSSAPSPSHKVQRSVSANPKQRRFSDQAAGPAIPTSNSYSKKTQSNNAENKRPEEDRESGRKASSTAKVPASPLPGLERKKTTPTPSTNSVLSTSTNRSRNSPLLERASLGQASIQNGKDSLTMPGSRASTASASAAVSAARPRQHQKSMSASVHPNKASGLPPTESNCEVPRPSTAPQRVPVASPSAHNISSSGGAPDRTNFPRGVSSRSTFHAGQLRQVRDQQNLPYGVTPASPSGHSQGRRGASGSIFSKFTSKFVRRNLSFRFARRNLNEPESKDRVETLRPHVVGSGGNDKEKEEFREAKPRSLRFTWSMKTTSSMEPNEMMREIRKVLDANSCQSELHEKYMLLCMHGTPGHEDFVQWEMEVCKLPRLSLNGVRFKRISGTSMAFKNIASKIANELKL

Cc1cc(OCc2ccc(F)cc2F)c(Br)c(=O)n1Cc1ccc(CN(C)C)cc1
44 nM: IC50 [2]
< 50%: inhibition [1] | inhibition [3] | inhibition [4] | inhibition [5] | inhibition [6] | inhibition [7] | inhibition [8] | inhibition [9] | inhibition [10] | inhibition [11] | inhibition [12] | inhibition [13] | inhibition [14] | inhibition [15] | inhibition [16] | inhibition [17] | inhibition [18] | inhibition [19] | inhibition [20] | inhibition [21] | inhibition [22] | inhibition [23] | inhibition [24]
